Assay results as given in ChEMBL document CHEMBL6087390, “Pyridine and Pyrimidine hybrids as privileged scaffolds in antimalarial drug discovery: A recent development” (Bioorg Med Chem Lett, 2024).

What was measured:
Plasmodium falciparum [1] = experiment: Antimalarial activity against Plasmodium falciparum D6 assessed as reduction in parasite growth; assay type: functional, organism-based
Plasmodium falciparum [2] = experiment: Antiplasmodial activity against Plasmodium falciparum NF54 assessed as reduction in parasite growth; assay type: functional, organism-based
Plasmodium falciparum [3] = experiment: Antiplasmodial activity against Plasmodium falciparum W2 assessed as reduction in parasite growth after 72 hrs by SYBR Green fluorescence assay; assay type: functional, organism-based; conditions: W2, 72 h
Plasmodium falciparum [4] = experiment: microbe, parasite or virus in culture; conditions: 3D7, 72 h
Plasmodium falciparum [5] = experiment: Antimalarial activity against Plasmodium falciparum 3D7 assessed as inhibition of parasite growth incubated for 72 hrs by SYBR Green I staining based analysis; assay type: functional, organism-based; conditions: 3D7, 72 h
Plasmodium falciparum [6] = experiment: Antiplasmodial activity against Plasmodium falciparum Dd2 assessed as reduction in parasite growth measured after 72 hrs by SYBR Green 1 staining based assay; assay type: functional, organism-based; conditions: Dd2, 72 h
HepG2 [7] = experiment: Cytotoxicity against human HepG2 cells assessed as reduction in cell viability measured for 48 hrs by SRB assay; assay type: functional
Plasmodium falciparum [8] = experiment: Antimalarial activity against Plasmodium falciparum 3D7 assessed as inhibition of parasite growth measured after 72 hrs by SYBR Green I staining based analysis; assay type: functional, organism-based; conditions: 3D7, 72 h
Plasmodium falciparum [9] = experiment: microbe, parasite or virus in culture; conditions: W2
Description: Antimalarial activity against Plasmodium falciparum W2 assessed as reduction in parasite growth

Plasmodium falciparum [10] = experiment: Antimalarial activity against […] Plasmodium falciparum NF54 assessed as inhibition of parasite growth incubated for 48 hrs by SYBR green dye based flow cytometry; assay type: functional, organism-based; conditions: NF54, 48 h
Plasmodium falciparum [11] = experiment: Antimalarial activity against Plasmodium falciparum K1 assessed as parasite growth inhibition; assay type: functional, organism-based
[12] = Cytotoxicity against African green monkey Vero cells assessed as reduction in cell growth measured after 72 hrs by MTT assay; assay type: toxicity, cell-based; conditions: African green monkey (Chlorocebus sabaeus)
HepG2 [13] = experiment: Cytotoxicity against human HepG2 cells assessed as reduction in cell viability incubated for 72 hrs by MTT assay; assay type: functional
HepG2 [14] = experiment: Cytotoxicity against human HepG2 cells assessed as reduction in cell growth; assay type: functional

Cc1cc(N(CCNc2ccnc3cc(Cl)ccc23)Cc2ccccn2)nc(N2CCN(C)CC2)n1
IC50 (Plasmodium falciparum [1]): 20 nM

COc1ccc(-c2cc(-c3ccc(OC)cc3)nc(N3CCN(c4ccnc5cc(Cl)ccc45)CC3)n2)cc1
IC50 (Plasmodium falciparum [2]): 7690 nM

COc1ccc(NC(=O)C(c2ccc(F)c(Cl)c2)N2CCN(c3ncnc4sc5c(c34)CCCC5)CC2)cc1 (stereo not drawn)
IC50 (Plasmodium falciparum [3]): 120 nM | IC50 (Plasmodium falciparum [4]): 1000 nM

Cc1ncc(C(c2nnnn2C2CC2)N(C2CC2)C2(c3cccc(C(F)(F)F)c3)CC2)cn1 (stereo not drawn)
EC50 (Plasmodium falciparum [5]): > 30000 nM | EC50 (Plasmodium falciparum [6]): 21000 nM | CC50 (HepG2 [7]): > 30000 nM

Cc1ccccc1-n1nnnc1C(c1cccnc1)N(Cc1cc(C(F)(F)F)ccc1F)C1CC1 (stereo not drawn)
EC50 (Plasmodium falciparum [8]): 600 nM

COc1ccc(C(F)(F)F)cc1CN(C)C(c1cccnc1)c1nnnn1-c1ccccc1C (stereo not drawn)
EC50 (Plasmodium falciparum [6]): 1700 nM | EC50 (Plasmodium falciparum [8]): 1200 nM

CCN1CCN(c2nc(C)cc(N(CCNc3ccnc4cc(Cl)ccc34)Cc3ccccn3)n2)CC1
IC50 (Plasmodium falciparum [1]): 20 nM | IC50 (Plasmodium falciparum [9]): 90 nM

Clc1ccc2c(NCCn3cc(-c4ccnc(-c5ccccn5)c4)nn3)ccnc2c1
IC50 (Plasmodium falciparum [10]): 90 nM | IC50 (Plasmodium falciparum [11]): 270 nM

CN(Cc1cccc(C(F)(F)F)c1F)C(c1cccnc1)c1nnnn1C1CCCCC1 (stereo not drawn)
EC50 (Plasmodium falciparum [6]): 2600 nM | EC50 (Plasmodium falciparum [8]): 1700 nM

CC1(C)c2nc(-c3ccc(F)cc3)c(Br)n2CCN1C(=O)Cn1cc(-c2ccnc(-c3ccccn3)c2)nn1
IC50 (Plasmodium falciparum [10]): 6800 nM | IC50 (Plasmodium falciparum [11]): 3900 nM

COc1ccc(-c2cc(-c3ccc(OC)c(OC)c3)nc(N3CCN(c4ccnc5cc(Cl)ccc45)CC3)n2)cc1OC
IC50 (Plasmodium falciparum [2]): 6170 nM

FC(F)(F)c1cc(Nc2ncccn2)c2cccc(C(F)(F)F)c2n1
IC50 at 72 h [12]: > 559000 nM

Cc1cc(N2CCN(C)CC2)nc(N(CCCNc2ccnc3cc(Cl)ccc23)Cc2cccs2)n1
IC50 (Plasmodium falciparum [1]): 30 nM | IC50 (Plasmodium falciparum [9]): 10 nM

Clc1ccc2c(NCCn3cc(-c4ccccn4)nn3)ccnc2c1
IC50 (Plasmodium falciparum [10]): 620 nM | IC50 (Plasmodium falciparum [11]): 950 nM

COc1ccc(C(F)(F)F)cc1CN(C1CC1)C(c1cccnc1)c1nnnn1-c1ccccc1C (stereo not drawn)
CC50 (HepG2 [13]): 16000 nM

Oc1ccc(-c2cc(-c3ccc(O)cc3)nc(NCCCCNc3ccnc4cc(Cl)ccc34)n2)cc1
IC50 (Plasmodium falciparum [2]): 320 nM

COc1ccc(NC(=O)C(c2ccc(Cl)c(Cl)c2)N2CCN(c3ncnc4sc5c(c34)CCCC5)CC2)cc1 (stereo not drawn)
IC50 (Plasmodium falciparum [3]): 60 nM

CC1(C)c2nc(-c3ccc(F)cc3)c(Br)n2CCN1C(=O)Cn1cc(-c2ccccn2)nn1
IC50 (Plasmodium falciparum [10]): 73100 nM | IC50 (Plasmodium falciparum [11]): 88300 nM

CC(=O)N(Cc1cccc(C(F)(F)F)c1)C(c1cncnc1)c1nnnn1-c1ccccc1C (stereo not drawn)
EC50 (Plasmodium falciparum [5]): 15000 nM | EC50 (Plasmodium falciparum [6]): > 30000 nM | CC50 (HepG2 [7]): > 30000 nM

Cc1ccccc1-n1nnnc1C(c1cccnc1)N(Cc1cccc(C(F)(F)F)c1)C1CC1 (stereo not drawn)
CC50 (HepG2 [13]): 15000 nM

Cc1ccccc1-n1nnnc1C(c1cncnc1)N(Cc1cccc(C(F)(F)F)c1)C1CC1 (stereo not drawn)
EC50 (Plasmodium falciparum [5]): 400 nM | CC50 (HepG2 [7]): 37000 nM

COc1ccc(NC(=O)C(c2ccc(C(F)(F)F)cc2)N2CCN(c3ncnc4sc5c(c34)CCCC5)CC2)cc1 (stereo not drawn)
IC50 (Plasmodium falciparum [3]): 50 nM

CC(C)=CCC1=C(OCc2cn(C3CC(CO)OC3n3cc(C)c(=O)[nH]c3=O)nn2)C(=O)c2ccccc2C1=O (stereo not drawn)
CC50 (HepG2 [14]): 60700 nM

OC(c1cc(C(F)(F)F)nc2c(C(F)(F)F)cccc12)C1CCCCN1 (stereo not drawn) [MEFLOQUINE]
IC50 at 72 h [12]: 15000 nM | IC50 (Plasmodium falciparum [9]): 10 nM

Oc1ccc(-c2cc(-c3ccc(O)c(O)c3)nc(NCCCCNc3ccnc4cc(Cl)ccc34)n2)cc1
IC50 (Plasmodium falciparum [2]): 1620 nM

COc1ccc(NC(=O)C(c2ccc(OC(F)(F)F)cc2)N2CCN(c3ncnc4sc5c(c34)CCCC5)CC2)cc1 (stereo not drawn)
IC50 (Plasmodium falciparum [3]): 60 nM

CCN1CCN(c2cc(C)nc(N(CCCNc3ccnc4cc(Cl)ccc34)Cc3cccs3)n2)CC1
IC50 (Plasmodium falciparum [1]): 32 nM | IC50 (Plasmodium falciparum [9]): 10 nM

COc1ccc(NC(=O)C(c2ccc(C)cc2)N2CCN(c3ncnc4sc5c(c34)CCCC5)CC2)cc1 (stereo not drawn)
IC50 (Plasmodium falciparum [3]): 260 nM

CC[C@H]1CN2CCc3cc(OC)c(OC)cc3[C@@H]2C[C@@H]1C[C@H]1NCCc2cc(OC)c(OC)cc21 [EMETINE]
IC50 (Plasmodium falciparum [10]): 250 nM | IC50 (Plasmodium falciparum [11]): 650 nM

Cc1ccccc1-n1nnnc1C(c1cccnc1)N(C)Cc1cc(C(F)(F)F)ccc1F (stereo not drawn)
EC50 (Plasmodium falciparum [8]): 1000 nM

CCCN(C(c1cccnc1)c1nnnn1-c1ccccc1C)C1(c2cccc(C(F)(F)F)c2)CC1 (stereo not drawn)
CC50 (HepG2 [13]): 10000 nM
